Test system: Aliivibrio fischeri bacteria
Assay: Toxicity test: EC-50 for the luminescence of Aliivibrio fischeri bacteria
Assay type: cell-based
Settings: for EC-50 for this ionic liquid: worked out from the dilution EC-50 and the ionic liquid content of the solution
Procedure: After filtration to remove the precipitate, this solution, which contains approximately 0.014 mg of ionic liquid/mg solution, was tested for toxicity. The half maximal effective concentration (EC-50) for this solution was then determined for the luminescence of Aliivibrio fischeri bacteria to assess the toxicity of the solution. […] 10.1 grams of a tri-butyl pentyl phosphonium ionic liquid (TBPP) was added to 770 grams of deionized (DI) water, giving a pH of about 3. […] After filtration to remove the precipitate, this solution, which contains approximately 0.013 mg of ionic liquid/mg solution, was tested for toxicity. The EC-50 for this solution was then determined for the luminescence of Aliivibrio fischeri bacteria to assess the toxicity of the solution.

[1] = luminescence of Aliivibrio fischeri

Compound | EC-50 reached at a dilution (of the neutralized, filtered ionic liquid solution) (luminescence of Aliivibrio fischeri, ionic liquid in DI water neutralized with NaOH to pH approximately 6, precipitate filtered off, approximately 0.013-0.014 mg ionic liquid/mg solution) [mg solution/Liter water] | EC-50 for this ionic liquid [1] | EC50 (Aliivibrio fischeri, read-out: EC-50 reached at a dilution (of the neutralized, filtered ionic liquid solution)) [µg/mL]
tri-butyl pentyl phosphonium ionic liquid [TBPP] | 1.2 | approximately 16 ppB | 
CCCCn1cc[n+](C)c1.F[P-](F)(F)(F)(F)F [BMIM, 1-butyl-3-methylimidazolium hexafluorophosphate] |  | approximately 80 ppB | 5.7

Source: US20180272327A1, “IONIC LIQUID CATALYST TREATING SYSTEM” (UOP LLC, priority 2015, published 2018)
